Data taken from PubChem BioAssay (NCI).
Where “and” joins values, the source holds several entries; their conditions need not be identical. Equal entries are not always repeated.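 1) Cells in 96-well plates. 2) Compound, 48 h, 5 concentrations. 3) Linear interpolation between surrounding doses. 4) Unreached endpoint = highest concentration. GI50 is the concentration that inhibits growth by half. TGI: concentration producing complete growth inhibition.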

Assays:
Experiment in all cases: NCI-60 cell line screen, 48 h
HCT-15 colon = system: HCT-15 colon
HL-60(TB) leukemia = system: HL-60(TB) leukemia
HOP-18 NSCLC = system: HOP-18 NSCLC
HOP-92 NSCLC = system: HOP-92 NSCLC
MALME-3M melanoma = system: MALME-3M melanoma
NCI-H226 lung = system: NCI-H226 lung
SF-295 CNS = system: SF-295 CNS
SNB-78 CNS = system: SNB-78 CNS
SW-620 colon = system: SW-620 colon
UACC-62 melanoma = system: UACC-62 melanoma

Row | SMILES | TGI (HCT-15 colon) | TGI (HL-60(TB) leukemia) | TGI (HOP-18 NSCLC) | TGI (HOP-92 NSCLC) | TGI (MALME-3M melanoma) | TGI (NCI-H226 lung) | TGI (SF-295 CNS) | TGI (SNB-78 CNS) | TGI (SW-620 colon) | TGI (UACC-62 melanoma) | GI50 (HCT-15 colon) | GI50 (HL-60(TB) leukemia) | GI50 (HOP-92 NSCLC) | GI50 (MALME-3M melanoma) | GI50 (NCI-H226 lung) | GI50 (SF-295 CNS) | GI50 (SW-620 colon) | GI50 (UACC-62 melanoma)
1 | O=C1OC2(c3ccccc3Oc3ccccc32)c2ccccc21 | > 100 µM | > 100 µM | > 100 µM | > 100 µM | > 100 µM | > 100 µM | > 100 µM | > 100 µM | > 100 µM | > 100 µM |  |  |  |  |  |  |  | 
2 | O=C(c1ccccc1)c1c(C(=O)c2ccccc2)c(-c2ccccc2)c2c(-c3ccccc3)sc(-c3ccccc3)c2c1-c1ccccc1 | > 100 µM | > 100 µM |  | > 100 µM | > 100 µM | > 100 µM | > 100 µM | > 100 µM | > 100 µM | > 100 µM |  |  |  |  |  |  |  | 
3 | O=C1C(=O)N(c2ccc(Cl)c(Cl)c2)C(=O)C(=O)C1c1nc2ccccc2o1 | > 100 µM | 53 µM |  | > 100 µM | > 100 µM | > 100 µM | > 100 µM | > 100 µM | > 100 µM | > 100 µM |  |  |  |  |  |  |  | 
4 | O=S1(=O)C[C@@H](O)[C@H](O)CS1 |  | > 100 µM | > 100 µM | > 100 µM | > 100 µM | > 100 µM | > 100 µM | > 100 µM | > 100 µM | > 100 µM |  |  |  |  |  |  |  | 
5 | CS(=O)c1ccc(COP(N)(=O)N(CCCl)CCCl)cc1 (centres undefined) |  | > 100 µM |  | > 100 µM | > 100 µM | > 100 µM | > 100 µM | > 100 µM | > 100 µM | > 100 µM |  |  |  |  |  |  |  | 
6 | COc1ccc2ccc([Se]c3ccc4ccc(OC)cc4c3)cc2c1 | > 100 µM | > 100 µM | > 100 µM | > 100 µM | > 100 µM | > 100 µM | > 100 µM | > 100 µM | > 100 µM | > 100 µM |  |  |  |  |  |  |  | 
7 | CC1(C)OCC(CO)(Nc2nc(N3CC3)nc(N3CC3)n2)CO1 | 45.8 µM | 25.3 µM | > 87.6 µM | 51.5 µM | 42.1 µM | 28.5 µM | 20.3 µM | > 100 µM | 64.1 µM | 14 µM |  |  |  |  |  |  |  | 
8 | CCOC(CN=c1nc(N(C)C)ss1)OCC | 42.8 µM | 12 µM | > 100 µM | 36 µM | 52.9 µM | 36 µM | 43.8 µM | 51.5 µM | 25.9 µM | 21.4 µM |  |  |  |  |  |  |  | 
9 | C[C@]12CCC(=O)C(O)=C1CC[C@@H]1[C@@H]2CC[C@]2(C)C(=O)CC[C@@H]12 | > 100 µM | > 100 µM |  | > 100 µM | > 100 µM | > 100 µM | > 100 µM | > 100 µM | > 100 µM | > 100 µM |  |  |  |  |  |  |  | 
10 | CCOC(=O)C(C)c1cc(C2(C)OCCO2)c(C)o1 (centres undefined) | > 100 µM | > 100 µM | > 100 µM | 97.7 µM | > 100 µM |  | > 100 µM | > 100 µM | > 100 µM | > 100 µM |  |  |  |  |  |  |  | 
11 | CC(C(=O)Oc1ccc2ccccc2c1-c1c(O)ccc2ccccc12)c1ccccc1 (centres undefined) | 27.2 µM | 35.1 µM |  | 23.5 µM | 34.8 µM | 26.5 µM | 25.6 µM | 33.9 µM | 31.8 µM | 27 µM |  |  |  |  |  |  |  | 
12 | CCOC(=O)C1C(=O)c2ccccc2CN1Cc1ccccc1 (centres undefined) | > 100 µM | > 100 µM | > 100 µM | > 100 µM | > 100 µM | > 100 µM | > 100 µM | > 100 µM | > 100 µM | > 100 µM |  |  |  |  |  |  |  | 
13 | c1ccc(N=C2c3ccccc3C3=NCCCN32)cc1 | > 100 µM |  |  | 72.2 µM | > 100 µM | > 100 µM | > 100 µM | > 100 µM | > 100 µM | > 100 µM |  |  |  |  |  |  |  | 
14 | COC(=O)c1nc(NC#N)[nH]c(=O)c1C | > 100 µM | > 100 µM | > 100 µM | > 100 µM | > 100 µM |  | > 100 µM | > 100 µM | > 100 µM | > 100 µM |  |  |  |  |  |  |  | 
15 | CC1NOC(=O)C1N=Nc1ccccc1Cl (centres undefined) |  | 52.2 µM | > 100 µM | 54.6 µM | 65.7 µM |  | > 100 µM | > 100 µM | > 100 µM | > 100 µM |  |  |  |  |  |  |  | 
16 | CC(=O)Nc1ccc(C2[C@H]3C(=O)N(c4ccc(Cc5ccc(N6C(=O)[C@@H]7ON(c8ccccc8)C(c8ccc(NC(C)=O)cc8)[C@@H]7C6=O)cc5)cc4)C(=O)[C@H]3ON2c2ccccc2)cc1 (some centres undefined) | > 100 µM | > 100 µM | > 100 µM |  | > 100 µM | > 100 µM | > 100 µM | > 100 µM | > 100 µM | > 100 µM |  |  |  |  |  |  |  | 
17 | O=c1cc2ccccc2nn1-c1ccccc1Cl | > 100 µM |  | > 100 µM | > 100 µM | > 100 µM | > 100 µM | > 100 µM | > 100 µM | > 100 µM | > 100 µM |  |  |  |  |  |  |  | 
18 | O=C(Nc1ccc(Cl)cc1)c1cc2ccccc2cc1O | > 100 µM | 7.91 µM |  | 7.77 µM | 95.6 µM | 82.2 µM | > 100 µM |  | > 100 µM | > 100 µM | 3100 nM | 2700 nM | 1410 nM | 1670 nM | 2.59 µM | 2960 nM | 3620 nM | 899 nM
19 | C=C1CC[C@@H]2C(C)(C)CCC[C@@]2(C)[C@@H]1Cc1cc(O)ccc1O | 12.3 µM | 4.67 µM | 30 µM | 10.6 µM | 17.4 µM | 7.09 µM | 28.2 µM | 5.25 µM | 23.8 µM | 22.8 µM |  |  |  |  |  |  |  | 
20 | COc1ccc(-c2cn[nH]c2-c2cc(OC)c(OC)c(OC)c2)cc1N | > 100 µM | < 0.01 µM and 0.0834 µM |  | > 100 µM | > 100 µM | > 100 µM and 56.3 µM | > 100 µM |  | > 100 µM | 70.1 µM and > 100 µM | < 10 nM and 29.8 nM | < 10 nM and 24.8 nM |  |  |  | < 10 nM and 13.4 nM | < 10 nM and 39.7 nM | < 10 nM
21 | O=C1CCC2(C=C(Br)C(=O)C(Br)=C2)O1 | 8.76 µM | 6.18 µM |  | 8.89 µM | 4.67 µM | 36.2 µM | 31.7 µM |  | 3.54 µM | 29 µM | 2770 nM | 1400 nM | 3070 nM | 2070 nM | 17.6 µM | 15900 nM | 1810 nM | 14800 nM
22 | O=C(O)C12C3CCCC1C2CC3 (centres undefined) | > 100 µM | > 100 µM | > 100 µM | > 100 µM | > 100 µM | > 100 µM | > 100 µM | > 100 µM |  | > 100 µM |  |  |  |  |  |  |  | 
